Values quoted from earlier work in US7166295B1, “Methods of treatment and diagnostic visualization, particularly in cancer” (priority 1995, dated 2007).

Settings: incorporated in liposomes, injected intraperitoneally into mice; compared with injection of the respective free drug

SMILES	concentration of drug in the plasma, spleen and lymphoid tissue relative to the free drug
CCCCCCCC/C=C\CCCCCCCC(=O)OCC(COP(=O)(O)OC[C@@H]1CCC(n2ccc(N)nc2=O)O1)OC(=O)CCCCCCC/C=C\CCCCCCCC (some centres unmarked) [DOP-ddc, Dioleoyl-phospathidyl-ddc]	increased concentration of drug in the plasma, spleen and lymphoid tissue
CCCCCCCCCCCCCCCC(=O)OCC(COP(=O)(O)OCC1OC(n2cc(C)c(=O)[nH]c2=O)CC1N=[N+]=[N-])OC(=O)CCCCCCCCCCCCCCC (centres unmarked) [DPP-AZT, Dipalmitoyl-phosphatidyl-3′-Azido-3′-deoxythymidine]	increased concentration of drug in the plasma, spleen and lymphoid tissue
